Paper PMC7290078, “Agonist bias and agonist‐dependent antagonism at corticotrophin releasing factor receptors” (Pharmacology Research & Perspectives, 2020)
Entries after “also recorded” stand apart in the source; their conditions may differ. No end group written: not given here.

Legend:
CRF1 receptor (hCRF1α) [1] = target: T1, CRF1 receptor (hCRF1α) (Homo sapiens, UniProt P34998); experiment: Antagonism of agonist-mediated cAMP accumulation in Cos7 cells expressing CRF1 receptors; type: cell-based; conditions: for allosteric effect α / effect on agonist efficacy β: CRF1, operational model of allosterism; for antagonist potency (pKB): hCRF1α, global Schild analysis, mean ± SEM
T1 construct: host or cells: Cos7 cells, transient transfection (PEI), pcDNA3.0/3.1 vector
T1 sequence (P34998 24-415): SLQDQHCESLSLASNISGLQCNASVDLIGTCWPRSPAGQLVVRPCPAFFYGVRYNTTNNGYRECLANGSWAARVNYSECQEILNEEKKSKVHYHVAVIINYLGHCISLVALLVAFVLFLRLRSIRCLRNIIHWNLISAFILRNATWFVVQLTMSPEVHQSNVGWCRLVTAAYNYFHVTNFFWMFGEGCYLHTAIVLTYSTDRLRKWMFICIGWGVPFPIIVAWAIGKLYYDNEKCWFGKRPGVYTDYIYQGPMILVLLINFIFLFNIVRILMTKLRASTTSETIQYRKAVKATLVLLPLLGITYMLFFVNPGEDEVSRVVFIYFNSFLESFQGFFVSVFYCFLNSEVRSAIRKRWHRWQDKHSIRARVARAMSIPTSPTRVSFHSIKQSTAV

CRF1 receptor = conditions: cited from earlier work
CRF1 receptor (hCRF1α) [2] = target: T1, CRF1 receptor (hCRF1α); experiment: Antagonism of agonist-mediated IP1 accumulation in Cos7 cells expressing CRF1 receptors; type: cell-based; conditions: for effect on agonist efficacy β: could not be determined, assumed; for allosteric effect α: operational model of allosterism; for antagonist potency (pKB): Gaddum method for insurmountable antagonism, mean ± SEM, n = 5
From the text: Plasmids containing hCRF1α and hCRF2α (GenBank accession numbers AY457172 and AY449734) were obtained from the cDNA Resource Centre (Bloomsburg University) and are referred to as CRF1 and CRF2 in this manuscript. Hemagglutinin (HA) epitope‐tagged human Calcitonin (CT) receptor (CT(a) splice variant) and myc‐tagged human RAMP1 were used as described previously. ^27 HA‐tagged human calcitonin receptor‐like receptor (CLR), N‐terminal FLAG‐tagged human RAMP3 and N‐terminal myc‐tagged human RAMP3 were a gift from Professor David Poyner (Aston University) and Professor Patrick Sexton (Monash University), respectively. N‐terminal FLAG‐tagged human RAMP2 was used as described previously. ^28 All receptors and RAMPs were cloned in pcDNA3.0 or pcDNA3.1 plasmid vectors. All plasmid inserts were sequenced at the Centre for Genomics, Proteomics and Metabolomics (University of Auckland) and the sequences were verified prior to use.
Cos7, HEK‐293S, and HEK‐293T cells were cultured as described previously. ^28 , ^29 Cos7 cells were originally supplied by the ATCC to Associate Professor Nigel Birch (University of Auckland). HEK‐293S cells were a gift from Professor David Poyner (Aston University) and HEK‐293T cells a gift from Professor John Taylor (University of Auckland). Briefly, all cell lines were cultured in Dulbecco's Modified Eagle Medium (DMEM) supplemented with 8% heat inactivated fetal bovine serum (FBS) and maintained in a humidified incubator at 37°C with 5% CO2. For transfection, cells were counted (Countess CounterTM; Life Technologies) and plated at a density of 20 000 cells per well in 96‐well plates. The cells were transiently transfected 48 hours prior to assaying using polyethylenimine (PEI), as described previously. ^28 , ^29 In all experiments a total of 0.25 μg DNA was transfected per well. In the majority of experiments 0.25 μg DNA of receptor‐containing plasmid or the pcDNA3.1 plasmid without an insert was used. For experiments involving RAMPs, 0.125 μg of receptor DNA and 0.125 μg of RAMP‐containing plasmid DNA were transfected to give a 1:1 ratio of receptor to RAMP. Where the RAMP or receptor were transfected alone, the ratio of DNA was made up with the pcDNA3.1 plasmid.
The IP‐one Gq assay kit (Cisbio) was used to quantify accumulated myo‐inositol‐1‐phosphate (IP1), a by‐product of IP3 produced after receptor‐mediated Gαq activation in Cos7 and HEK‐293S cells. Briefly, culture media was removed and replaced with DMEM containing 0.1% BSA for 30 minutes at 37°C. Cells were then incubated with media containing 50 mmol/L lithium chloride (LiCl) for an additional 0‐120 minutes (time courses) or 90 minutes at 37°C in the presence or absence of an antagonist. Agonist concentrations of 1 pmol/L to 10 µmol/L were used for agonist only assays or 10 pmol/L to 10 µmol/L concentrations for antagonist experiments. After cell stimulation, 14 µL of stimulation buffer was added to each well. Three microlitres of each detection antibody were added in turn to the plate and incubated at room temperature for 1 hour. Fifteen microliters of sample was then transferred to a 384‐well optiplate and read by an Envision plate reader (PerkinElmer). IP1 concentrations were calculated from a standard curve generated in duplicate.
In all experiments the position of peptides and antagonists (pharmacology) or transfected receptors (ELISAs) on assay plates was randomized during each independent experiment, which are independent biological replicates. In all cases, duplicate, triplicate, or quadruplicate technical replicates were conducted for each independent experiment. For transfected cell experiments, each independent experiment involved plating cells from a distinct passage, separate transient transfection and separate signaling or ELISA assays, constituting experimental n. […]

CRF2 receptor = system: CRF2 receptor; parameters: method as in PMID 11123370, PMID 12615952; conditions: cited from earlier work

Molecule: CCC(CC)Nc1cc(C)nc(Oc2c(C)cc(C)cc2C)c1C [CP‐376,395]
- partial agonism / intrinsic activity (CRF1 receptor (hCRF1α) [1]): No intrinsic activity; also recorded: no evidence of partial agonism
- effect of pre‐incubation on antagonism (CRF1 receptor (hCRF1α) [1]; 75 minute pre‐incubation, preliminary cAMP antagonism experiment): did not increase antagonism or result in a reduction of E max
- effect on agonist E max (CRF1 receptor (hCRF1α) [1]; CRF and UCN1‐mediated cAMP, CRF1 receptor, F tests): no significant difference in E max values
- allosteric effect α (CRF1 receptor (hCRF1α) [1]; agonist CRF, cAMP): 0.005
- effect on agonist efficacy β (CRF1 receptor (hCRF1α) [1]; agonist CRF, cAMP): 0.63
- antagonist potency (pKB) (CRF1 receptor (hCRF1α) [1]; agonist CRF, cAMP, n = 5): 6.90 ± 0.20
- allosteric effect α (CRF1 receptor (hCRF1α) [1]; agonist UCN1, cAMP): 0.03
- effect on agonist efficacy β (CRF1 receptor (hCRF1α) [1]; agonist UCN1, cAMP): 0.63
- antagonist potency (pKB) (CRF1 receptor (hCRF1α) [1]; agonist UCN1, cAMP, n = 5 (CP‐376,395), n = 3 (astressin2B)): 5.32 ± 0.14
- potency at CRF1 receptor compared to CRF2 receptor (CRF1 receptor (hCRF1α) [1]; antagonism of CRF‐induced cAMP signaling): at least 800 fold
- potency at CRF1 receptor compared to CRF2 receptor (CRF1 receptor (hCRF1α) [1]; antagonism of UCN1‐induced cAMP signaling): ≥ 20 fold
- mode of antagonism (CRF1 receptor (hCRF1α) [1]; cAMP accumulation): competitive antagonist of cAMP accumulation
- selectivity (CRF1 receptor): selective for the CRF1 receptor
- potency against CRF‐mediated relative to UCN1‐mediated IP1 accumulation (CRF1 receptor (hCRF1α) [2]; CRF1 receptor): approximately 8 fold
- mode of antagonism (CRF1 receptor (hCRF1α) [2]; IP1 accumulation): non‐competitive antagonist of IP1 accumulation
- effect on agonist efficacy β (CRF1 receptor (hCRF1α) [2]; agonist CRF, IP1, CRF1): ~ 0
- allosteric effect α (CRF1 receptor (hCRF1α) [2]; agonist CRF, IP1, CRF1): 0.03
- antagonist potency (pKB) (CRF1 receptor (hCRF1α) [2]; agonist CRF, IP1, hCRF1α): 7.55 ± 0.10
- effect on agonist efficacy β (CRF1 receptor (hCRF1α) [2]; agonist UCN1, IP1, CRF1): ~ 0
- allosteric effect α (CRF1 receptor (hCRF1α) [2]; agonist UCN1, IP1, CRF1): 0.15
- antagonist potency (pKB) (CRF1 receptor (hCRF1α) [2]; agonist UCN1, IP1, hCRF1α): 6.67 ± 0.08
- effect on agonist E max (CRF1 receptor (hCRF1α) [2]; antagonism of CRF and UCN1‐mediated IP1, CRF1 receptor, F tests): a reduction in E max

Molecule: IVLSLDVPIGLLQILLEQARARAAREQATTNARILARVGHC-NH2 (C-terminus assumed) [UCN2]
- binding affinity in words (CRF2 receptor): high affinity
